Each compound was assayed against T1, Leucyl-cystinyl aminopeptidase (Rattus norvegicus, UniProt P97629) (assay: Inhibition Assay: The inventors have assumed that inhibition of nocturnal activity of placental leucine aminopeptidase (P-LAP), i.e. aminopeptidase that cleaves AVP, would maintain and/or increase an endogenous AVP level to enhance the antidiuretic effect, which would contribute to a decreased number of nocturnal voids, and have extensively studied compounds which inhibit P-LAP.).
T1 sequence (P97629 whole entry): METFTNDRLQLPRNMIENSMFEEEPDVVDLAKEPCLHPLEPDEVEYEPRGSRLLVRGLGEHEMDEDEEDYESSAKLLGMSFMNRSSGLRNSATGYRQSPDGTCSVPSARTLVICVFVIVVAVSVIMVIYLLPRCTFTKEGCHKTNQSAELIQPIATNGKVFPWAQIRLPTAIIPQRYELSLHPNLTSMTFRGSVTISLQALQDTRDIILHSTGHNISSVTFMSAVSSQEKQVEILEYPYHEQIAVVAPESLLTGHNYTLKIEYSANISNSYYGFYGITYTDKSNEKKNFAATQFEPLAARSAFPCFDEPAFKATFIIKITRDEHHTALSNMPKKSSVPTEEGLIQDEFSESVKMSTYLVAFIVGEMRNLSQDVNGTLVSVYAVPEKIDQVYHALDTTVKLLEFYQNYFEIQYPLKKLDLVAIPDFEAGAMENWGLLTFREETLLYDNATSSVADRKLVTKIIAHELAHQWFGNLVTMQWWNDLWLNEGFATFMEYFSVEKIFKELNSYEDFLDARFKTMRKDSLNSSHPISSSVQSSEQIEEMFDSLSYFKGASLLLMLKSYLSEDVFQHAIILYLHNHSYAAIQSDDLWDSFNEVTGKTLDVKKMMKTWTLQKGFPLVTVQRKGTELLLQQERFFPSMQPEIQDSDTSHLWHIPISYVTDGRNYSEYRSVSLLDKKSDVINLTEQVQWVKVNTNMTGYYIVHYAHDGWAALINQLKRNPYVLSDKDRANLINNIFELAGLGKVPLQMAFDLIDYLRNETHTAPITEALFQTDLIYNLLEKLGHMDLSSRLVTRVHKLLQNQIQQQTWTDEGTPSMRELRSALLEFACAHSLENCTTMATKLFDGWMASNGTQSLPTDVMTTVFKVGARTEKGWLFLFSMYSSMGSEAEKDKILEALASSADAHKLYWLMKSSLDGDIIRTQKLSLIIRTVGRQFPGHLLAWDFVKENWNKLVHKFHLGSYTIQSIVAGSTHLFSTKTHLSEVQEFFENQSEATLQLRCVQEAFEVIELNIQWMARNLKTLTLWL

Question: How did the IC50 turn out when `CCCC1CC1c1ccnc(C[C@](O)(C(=O)O)[C@@H](N)CC(C)C)c1` (stereo partly drawn) was run?
Answer: 19 nM

Question: Which IC50 does the source give for `CCCCCc1ccnc(C[C@](O)(C(=O)O)[C@@H](N)CC(C)C)c1` here?
Answer: 11 nM

Question: `Cc1cnc(C[C@](O)(C(=O)O)[C@@H](N)CCC2CC2)cc1CCCC1CC1` was tested. Which IC50 did it give?
Answer: 0.58 nM

Question: `CSC[C@H](N)[C@](O)(Cc1cc(CCCC2CC2)c(C)cn1)C(=O)O` was tested. Which IC50 did it give?
Answer: 1.7 nM

Question: Which IC50 does the source give for `CC(C)C[C@H](N)[C@](O)(Cc1nccc2c1CCC(CC1CC1)C2)C(=O)O` (stereo partly drawn) here?
Answer: 15 nM

Question: With `Cc1c(CCCC2CC2)ccnc1C[C@](O)(C(=O)O)[C@@H](N)CC(C)C` as the compound, how does the IC50 read?
Answer: 370 nM

Question: Which IC50 does the source give for `COc1ccccc1CCc1ccnc(C[C@](O)(C(=O)O)[C@@H](N)CC(C)C)c1` here?
Answer: 12 nM

Question: For `C=CCSC[C@H](N)[C@](O)(Cc1cc(CCCC2CC2)ccn1)C(=O)O`, which IC50 is on record?
Answer: 20 nM
